Results reported in patent US6004983A, “N-substituted azaheterocyclic compounds” (Novo Nordisk A/S, priority 1996, dated 1999).

Tested on: histamine induced oedema
Test: Histamine induced paw oedema (rat histamine paw oedema test)
Assay type: in vivo, rat (male Sprague-Dawley)
Conditions: at 1 mg/kg, intraperitoneally 15 minutes before the anaesthetics, histamine 50 microliter, 3 mg/ml in right hind paw, swelling 20 minutes after histamine
Procedure: Compounds of formula I may be used to treat all painful, hyperalgesic and/or inflammatory conditions in which C-fibres play a pathophysiological role by eliciting neurogenic pain or inflammation, i. e.:
I. Histamine induced paw oedema
The rat histamine paw oedema test was performed essentially as described by Amann et al. (Europ. J. Pharmacol. 279, 227-231, 1995). In brief 250-300 g male Sprague-Dawley rats were anaesthetized with pentobarbital sodium, and placed on a 32 degree(Celsius) heated table. Ten minutes later histamine (50 micoliter, 3 mg/ml) was injected in the right hind paw and 20 minutes hereafter the paw swelling was determined by water plethysmography (Ugo Basile). Test compounds were administered intraperitoneally at 15 minutes before the anaesthetics.

Compound	% oedema inhibition (inhibition of histamine induced oedema)
Cl.O=C(O)C1CCN(CC=C2c3ccccc3CSc3ccccc32)CC1 [Example 2, 1-(2-(6,11-Dihydrodibenzo[b,e]thiepin-11-ylidene)-1-ethyl)-4-piperidinecarboxylic acid hydrochloride]	51%
Cl.O=C(O)[C@H]1CCCCN1CC=C1c2ccccc2CCc2ccccc21 [Example 12, (R)-1-(2-(10,11-dihydro-5H-dibenzo[a,d]cyclohepten-5-ylidene)-1-ethyl)-2-piperidinecarboxylic acid hydrochloride]	49%
